Assay results as given in paper PMC10893103, “Cyclodextrin-Enabled Enantioselective Complexation Study of Cathinone Analogs” (Molecules, 2024).

Assay: Affinity capillary electrophoresis (ACE), pH 7.4
Settings: 30 mM phosphate buffer pH 7.4, 25 °C, 15 kV
From the text: To assess the CD complex formation capability of the five cathinone derivatives, we devised a screening ACE method tailored to closely mimic physiological conditions. In a preliminary study, the ACE conditions were optimized regarding the type, pH, and concentration of the background electrolyte, the applied voltage, and the injection parameters. […] In order to avoid high Joule heat generation, sufficiently low voltage should be used; thus, after registering the Ohm plot (I-U plot), it was set to 15 kV. Throughout our ACE measurements, corrections for viscosity and ionic strength were systematically implemented to ensure precise determination of complex stability constants.
The CE experiments were performed on a HP ^3DCE and on an Agilent 7100 instrument (Agilent Technologies, Waldbronn, Germany) equipped with a photodiode array detector and the Chemstation software for data handling. Untreated fused silica capillaries (50 µm id, 48.5 cm total, 40 cm effective length) were purchased from Agilent. Conditioning of new capillary was conducted by flushing with 1 M NaOH followed by 0.1 M NaOH and water for 30 min each. Prior to all runs, the capillary was preconditioned by rinsing with BGE (2 min). The temperature of the capillary was set to 25 °C. UV detection was performed at 215 nm, and 15–25 kV voltage was applied. Samples were injected hydrodynamically (150 mbar·sec, optimized in the 50–500 mbar·sec range). The CE-pH measurements were carried out applying 25 kV voltage and 200 mbar·sec injection.
The background electrolyte of the CE-pH measurements contained 25 mM Na2HPO4 and 25 mM Na2B4O7, and the appropriate pH was adjusted with hydrochloric acid. During the ACE measurements, 30 mM phosphate buffer pH 7.4 (30 mM Na2HPO4—NaOH) was used. The running buffer was 20 mM acetic acid adjusting with 1 M Tris the pH to 4.5 during the chiral screening experiments. The BGEs contained CDs at various concentrations (0.25–20 mM) in the ACE experiments and 1-5-10 mM in the chiral method optimization experiments.
Stock solutions of each cathinone analog (mephedrone, flephedrone, 4-MEC, butylone, and MDPV) were prepared separately in methanol (1 mg/ml), and appropriate dilutions with water were used to prepare sample solutions for the CE-pH titration and for the ACE studies applying DMSO as EOF marker, while their mixture was used during the chiral separation studies.
The simplest way to determine the mobility is from the migration times (tmax) read from the electropherograms from which the apparent mobility could be calculated, but more accurate mobility values could be obtained by the determination with the Haarhoff–van der Linde (HVL) function based on Equation (2). (2) HVLδ(t;a0,a1,a2,a3δ)=a0/a2a3δ2πexp[−1/2(t−a1/a2)^2]/1/exp(a3δ)−1+1/2[1+erf(t−a1/2a2)] where a0 is the area of the HVL function, a1 is the position of the Gaussian component, a2 is the standard deviation of the Gaussian component, and a3δ is the peak shape distortion. The application of the HVL function is necessary in the case of accurate ACE measurements because, in several cases, the peaks are distorted due to the complex formation, which makes reading the migration times and calculating the mobility more difficult and imprecise.
The most popular technique for quantifying the analyte–ligand interaction with CE is mobility shift ACE.

Compound | Mephedrone–CD complex stability constant, Kstab/Kstab1 (unresolved or first migrating enantiomer) [M⁻¹] | Flephedrone–CD complex stability constant, Kstab2 (second migrating enantiomer) [M⁻¹] | Flephedrone–CD complex stability constant, Kstab/Kstab1 (unresolved or first migrating enantiomer) [M⁻¹] | MDPV–CD complex stability constant, Kstab2 (second migrating enantiomer) | 4-MEC–CD complex stability constant, Kstab2 (second migrating enantiomer) [M⁻¹] | 4-MEC–CD complex stability constant, Kstab/Kstab1 (unresolved or first migrating enantiomer) [M⁻¹] | Butylone–CD complex stability constant, Kstab/Kstab1 (unresolved or first migrating enantiomer) [M⁻¹] | MDPV–CD complex stability constant, Kstab/Kstab1 (unresolved or first migrating enantiomer) [M⁻¹] | Butylone–CD complex stability constant, Kstab2 (second migrating enantiomer) [M⁻¹] | Mephedrone–CD complex stability constant, Kstab2 (second migrating enantiomer) [M⁻¹]
O=C(O)CCSC[C@H]1O[C@@H]2O[C@H]3[C@H](O)[C@@H](O)[C@@H](O[C@H]4[C@H](O)[C@@H](O)[C@@H](O[C@H]5[C@H](O)[C@@H](O)[C@@H](O[C@H]6[C@H](O)[C@@H](O)[C@@H](O[C@H]7[C@H](O)[C@@H](O)[C@@H](O[C@H]1[C@H](O)[C@H]2O)O[C@@H]7CSCCC(=O)O)O[C@@H]6CSCCC(=O)O)O[C@@H]5CSCCC(=O)O)O[C@@H]4CSCCC(=O)O)O[C@@H]3CSCCC(=O)O [SAX, hexakis-(6-deoxy-6-(2-carboxyethyl)thio)-α-CD] | 530 ± 45 | – | – | – | – | – | – | – | – | –
O=C(O)CCSC[C@H]1O[C@@H]2O[C@H]3[C@H](O)[C@@H](O)[C@@H](O[C@H]4[C@H](O)[C@@H](O)[C@@H](O[C@H]5[C@H](O)[C@@H](O)[C@@H](O[C@H]6[C@H](O)[C@@H](O)[C@@H](O[C@H]7[C@H](O)[C@@H](O)[C@@H](O[C@H]8[C@H](O)[C@@H](O)[C@@H](O[C@H]1[C@H](O)[C@H]2O)O[C@@H]8CSCCC(=O)O)O[C@@H]7CSCCC(=O)O)O[C@@H]6CSCCC(=O)O)O[C@@H]5CSCCC(=O)O)O[C@@H]4CSCCC(=O)O)O[C@@H]3CSCCC(=O)O [SBX, heptakis-(6-deoxy-6-(2-carboxyethyl)thio)-β-CD] | – | 610 ± 45 | 575 ± 35 | 12,830 ± 900 M^−1 | – | – | – | – | – | –
O=C(O)CCSC[C@H]1O[C@@H]2O[C@H]3[C@H](O)[C@@H](O)[C@@H](O[C@H]4[C@H](O)[C@@H](O)[C@@H](O[C@H]5[C@H](O)[C@@H](O)[C@@H](O[C@H]6[C@H](O)[C@@H](O)[C@@H](O[C@H]7[C@H](O)[C@@H](O)[C@@H](O[C@H]8[C@H](O)[C@@H](O)[C@@H](O[C@H]9[C@H](O)C(O)[C@@H](O[C@H]1[C@H](O)[C@H]2O)O[C@@H]9CSCCC(=O)O)O[C@@H]8CSCCC(=O)O)O[C@@H]7CSCCC(=O)O)O[C@@H]6CSCCC(=O)O)O[C@@H]5CSCCC(=O)O)O[C@@H]4CSCCC(=O)O)O[C@@H]3CSCCC(=O)O (stereo partly drawn) [SGX, octakis(6-deoxy-6-(2-carboxyethyl)thio)-γ-CD] | 825 ± 65 | – | 315 ± 20 | – | 960 ± 95 | 975 ± 90 | – | – | – | –
COCC1OC2OC3C(COC)OC(OC4C(COC)OC(OC5C(COC)OC(OC6C(COC)OC(OC7C(COC)OC(OC8C(COC)OC(OC1C(OC)C2OC)C(OC)C8OC)C(OC)C7OC)C(OC)C6OC)C(OC)C5OC)C(OC)C4OC)C(OC)C3OC (stereo not drawn) [TRIME-β-CD, permethylated-β-CD] | 20 ± 3 | – | < 10 | – | – | 60 ± 15 | 20 ± 2 | 40 ± 10 | – | –
COC[C@H]1O[C@@H]2O[C@H]3[C@H](OC)[C@@H](OC)[C@@H](O[C@H]4[C@H](OC)[C@@H](OC)[C@@H](O[C@H]5[C@H](OC)[C@@H](OC)[C@@H](O[C@H]6[C@H](OC)[C@@H](OC)[C@@H](O[C@H]7[C@H](OC)[C@@H](OC)[C@@H](O[C@H]8[C@H](OC)[C@@H](OC)[C@@H](O[C@H]9[C@H](OC)[C@@H](OC)[C@@H](O[C@H]1[C@H](OC)[C@H]2OC)O[C@@H]9COC)O[C@@H]8COC)O[C@@H]7COC)O[C@@H]6COC)O[C@@H]5COC)O[C@@H]4COC)O[C@@H]3COC [TRIME-γ-CD, permethylated-γ-CD] | < 10 | – | < 10 | – | – | 20 ± 4 | 25 ± 10 | 45 ± 14 | – | –
OC[C@H]1O[C@@H]2O[C@H]3[C@H](O)[C@@H](O)[C@@H](O[C@H]4[C@H](O)[C@@H](O)[C@@H](O[C@H]5[C@H](O)[C@@H](O)[C@@H](O[C@H]6[C@H](O)[C@@H](O)[C@@H](O[C@H]7[C@H](O)[C@@H](O)[C@@H](O[C@H]1[C@H](O)[C@H]2O)O[C@@H]7CO)O[C@@H]6CO)O[C@@H]5CO)O[C@@H]4CO)O[C@@H]3CO [α-CD] | 30 ± 4 | – | 40 ± 4 | 50 ± 5 M⁻¹ | – | 30 ± 5 | 40 ± 5 | 40 ± 6 | – | –
OC[C@H]1O[C@@H]2O[C@H]3[C@H](O)[C@@H](O)[C@@H](O[C@H]4[C@H](O)[C@@H](O)[C@@H](O[C@H]5[C@H](O)[C@@H](O)[C@@H](O[C@H]6[C@H](O)[C@@H](O)[C@@H](O[C@H]7[C@H](O)[C@@H](O)[C@@H](O[C@H]8[C@H](O)[C@@H](O)[C@@H](O[C@H]9[C@H](O)[C@@H](O)[C@@H](O[C@H]1[C@H](O)[C@H]2O)O[C@@H]9CO)O[C@@H]8CO)O[C@@H]7CO)O[C@@H]6CO)O[C@@H]5CO)O[C@@H]4CO)O[C@@H]3CO [γ-CD] | 60 ± 10 | – | 125 ± 10 | – | – | 90 ± 15 | 30 ± 3 | 100 ± 10 | – | –
acetylated-β-CD [Ac-β-CD] | 220 ± 20 | – | 100 ± 14 | 240 ± 20 M⁻¹ | – | 150 ± 15 | 290 ± 30 | 310 ± 30 | 380 ± 30 | –
carboxyethylated-β-CD [CE-β-CD] | 400 ± 30 | – | 150 ± 10 | – | – | 590 ± 40 | 975 ± 95 | – | – | 430 ± 25
carboxymethylated-α-CD [CM-α-CD] | 90 ± 20 | 90 ± 15 | 75 ± 9 | 340 ± 20 M⁻¹ | 150 ± 15 | 150 ± 15 | 110 ± 12 | 240 ± 20 | 90 ± 12 | 110 ± 20
